Data taken from US6355799B1, “Substituted benzene compounds, process for their preparation, and herbicidal and defoliant compositions containing them” (ISK Americas Incorporated, priority 1997, dated 2002).

Experiments:
Type in all cases: in vivo
[1] = tested on: redroot pigweed (Amaranthus retroflexus, AMARE); test: Pre-emerge test, greenhouse herbicide activity screening; conditions: pre-emerge, 14 days after application, rating scale 0-100
Procedure, shortened: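 Herbicidal damage is scored 0 (none) to 100 (complete plant death) two weeks after a simulated field spray. Rates span 15–1000 g ai/ha, delivered in acetone at 187 l/ha. For post-emergence treatments, plants have 2–3 leaves and the spray carries 0.25% v/v non-ionic surfactant.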

[2] = tested on: velvetleaf (Abutilon theophrasti, ABUTH); test: as above; conditions: pre-emerge, 14 days after application, rating scale 0-100
Source text: (§1) A standard greenhouse herbicide activity screening system was used to evaluate the herbicidal efficacy and crop safety of these test compounds. Seven broadleaf weed species including redroot pigweed (Amaranthus retroflexus, AMARE, velvetleaf (Abutilon theophrasti, ABUTH), sicklepod (Cassia obtusifolia, CASOB), ivyleaf morningglory (Ipomoea hederacea, IPOHE), lambsquarters (Chenopodium album, CHEAL), common ragweed (Ambrosia artemisizfolia L., AMBEL), and cocklebur (Xanthium strumarium, XANST) were used as test species. Four grass weed species including green foxtail (Setaria viridis, SETVI), barnyardgrass (Echinochloa crus-galli, ECHCG), johnsongrass (Sorghum halepense, SORHA), and large crabgrass (Digitaria sanguinalis, DIGSA) were also used. In addition, three crop species, field corn (Zea mays L., var. Dekalb 535, CORN), soybean (Glycine max L., var. Pella 86, SOY), and is upland rice (Oryza sp., var. Tebonnet, RICE) were included.
(§2) All plants were grown in 10 cm square plastic pots which were filled with a sandy loam soil mix. For pre-emerge tests, seeds were planted one day prior to application of the test compounds. For post-emerge tests, seeds were planted 8-21 days prior to the test to allow emergence and good foliage development prior to application of the test substances. At the time of the post-emerge application, plants of all species were usually at the 2-3 leaf stage of development.
(§3) All test compounds Were dissolved in acetone and applied to the test units in a volume of 187 l /ha. Test materials were applied at rates ranging from 15 g ai/ha to 1000 g ai/ha using a track sprayer equipped with a TJ8001E even flow flat fan spray nozzle. Plants were arranged on a shelf so that the top of the canopy (post-emerge) or top of the soil surface (pre-emerge) was 40-45 cm below the nozzle. Pressurized air was used to force the test solution through the nozzle as it was mechanically advanced (via electrically driven chain drive) over the top of all test plants/pots. This application simulates a typical commercial field herbicide application.
(§4) In the post-emerge test, a commercial non-ionic surfactant was also included (0.25% v/v) to enhance wetting of the leaf surfaces of target plants. Immediately after application, test units of the pre-emerge applications were watered at the soil surface to incorporate the test materials. Subsequently, these test units were bottom-watered. Post-emerge test units were always bottom-watered.
(§5) At 14 days after application of the test materials, phytotoxicity ratings were recorded. A rating scale of 0-100 was used as previously described in Research Methods in Weed Science, 2nd edition, B. Truelove, Ed., Southern Weed Science Society, Auburn University, Auburn, Ala. 1977. Briefly, “0” corresponds to no damage and “100” corresponds to complete death of all plants in the test unit. This scale was used both to determine efficacy against weed species and damage to crop species. Herbicide activity data for various compounds of this invention, which are shown by compound No. in Tables 1-8, are shown in Tables 11 and 12.

[3] = tested on: lambsquarters (Chenopodium album, CHEAL); test: as above; conditions: pre-emerge, 14 days after application, rating scale 0-100
Source text: as §1, §2, §3, §4, §5

[4] = tested on: large crabgrass (Digitaria sanguinalis, DIGSA); test: as above; conditions: pre-emerge, 14 days after application, rating scale 0-100
Source text: as §1, §2, §3, §4, §5

[5] = tested on: barnyardgrass (Echinochloa crus-galli, ECHCG); test: as above; conditions: pre-emerge, 14 days after application, rating scale 0-100
Source text: as §1, §2, §3, §4, §5

[6] = tested on: sicklepod (Cassia obtusifolia, CASOB); test: as above; conditions: pre-emerge, 14 days after application, rating scale 0-100
Source text: as §1, §2, §3, §4, §5

[7] = tested on: ivyleaf morningglory (Ipomoea hederacea, IPOHE); test: as above; conditions: pre-emerge, 14 days after application, rating scale 0-100
Source text: as §1, §2, §3, §4, §5

[8] = tested on: green foxtail (Setaria viridis, SETVI); test: as above; conditions: pre-emerge, 14 days after application, rating scale 0-100
Source text: as §1, §2, §3, §4, §5

[9] = tested on: upland rice (Oryza sp., var. Tebonnet, RICE); test: Post-emerge test, crop safety; conditions: post-emerge, 14 days after application, rating scale 0-100
Procedure, shortened: (§6)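 Applied at 15–1000 g ai/ha from acetone in 187 l/ha spray volume. Post-emergence applications included 0.25% v/v non-ionic surfactant and reached plants sown 8–21 days before. Pre-emergence applications were incorporated by surface watering. Efficacy or crop damage was rated on a 0–100 scale after 14 days.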

[10] = tested on: field corn (Zea mays L., var. Dekalb 535, CORN); test: Post-emerge test, crop safety; conditions: post-emerge, 14 days after application, rating scale 0-100
Procedure, shortened: as §6

[11] = tested on: velvetleaf (Abutilon theophrasti, ABUTH); test: Post-emerge test, greenhouse herbicide activity screening; conditions: post-emerge, 14 days after application, rating scale 0-100
Source text: as §1, §2, §3, §4, §5

[12] = tested on: lambsquarters (Chenopodium album, CHEAL); test: as above; conditions: post-emerge, 14 days after application, rating scale 0-100
Source text: as §1, §2, §3, §4, §5

[13] = tested on: large crabgrass (Digitaria sanguinalis, DIGSA); test: as above; conditions: post-emerge, 14 days after application, rating scale 0-100
Source text: as §1, §2, §3, §4, §5

[14] = tested on: barnyardgrass (Echinochloa crus-galli, ECHCG); test: as above; conditions: post-emerge, 14 days after application, rating scale 0-100
Source text: as §1, §2, §3, §4, §5

[15] = tested on: sicklepod (Cassia obtusifolia, CASOB); test: as above; conditions: post-emerge, 14 days after application, rating scale 0-100
Source text: as §1, §2, §3, §4, §5

[16] = tested on: ivyleaf morningglory (Ipomoea hederacea, IPOHE); test: as above; conditions: post-emerge, 14 days after application, rating scale 0-100
Source text: as §1, §2, §3, §4, §5

[17] = tested on: green foxtail (Setaria viridis, SETVI); test: as above; conditions: post-emerge, 14 days after application, rating scale 0-100
Source text: as §1, §2, §3, §4, §5

[18] = tested on: redroot pigweed (Amaranthus retroflexus, AMARE); test: as above; conditions: post-emerge, 14 days after application
Source text: as §1, §2, §3, §4, §5

[19] = tested on: upland rice (Oryza sp., var. Tebonnet, RICE); test: Pre-emerge test, crop safety; conditions: pre-emerge, 14 days after application, rating scale 0-100
Procedure, shortened: (§7)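 Rating: 0–100 visual injury, 14 DAA. Application: acetone, 187 l/ha, 15–1000 g ai/ha, flat-fan track sprayer with nozzle 40–45 cm above soil or canopy. Post-emerge runs used 0.25% v/v surfactant on 2–3 leaf plants.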

[20] = tested on: field corn (Zea mays L., var. Dekalb 535, CORN); test: Pre-emerge test, crop safety; conditions: pre-emerge, 14 days after application, rating scale 0-100
Procedure, shortened: as §7

Question: Which results are given for COc1c(Cl)cc(F)c(-n2c(=O)cc(C(F)(F)F)n(C)c2=O)c1NNC(=O)Nc1ccc(F)cc1F [15-8]?
Answer: phytotoxicity rating AMARE ([1]; 63 g ai/ha): 60; phytotoxicity rating AMARE ([1]; 250 g ai/ha): 100; phytotoxicity rating ABUTH ([2]; 63 g ai/ha): 40; phytotoxicity rating ABUTH ([2]; 250 g ai/ha): 100; phytotoxicity rating CHEAL ([3]; 63 g ai/ha): 60; phytotoxicity rating CHEAL ([3]; 250 g ai/ha): 100; phytotoxicity rating DIGSA ([4]; 63 g ai/ha): 30; phytotoxicity rating DIGSA ([4]; 250 g ai/ha): 100; phytotoxicity rating ECHCG ([5]; 63 g ai/ha): 0; phytotoxicity rating ECHCG ([5]; 250 g ai/ha): 40; phytotoxicity rating CASOB ([6]; 63 g ai/ha): 20; phytotoxicity rating CASOB ([6]; 250 g ai/ha): 80; phytotoxicity rating IPOHE ([7]; 63 g ai/ha): 0; phytotoxicity rating IPOHE ([7]; 250 g ai/ha): 70; phytotoxicity rating SETVI ([8]; 63 g ai/ha): 20; phytotoxicity rating SETVI ([8]; 250 g ai/ha): 0; Post-emerge Herbicidal Activity RICE (crop damage rating) ([9]; 63 g ai/ha): 10; Post-emerge Herbicidal Activity RICE (crop damage rating) ([9]; 250 g ai/ha): 60; Post-emerge Herbicidal Activity CORN (crop damage rating) ([10]; 63 g ai/ha): 0; Post-emerge Herbicidal Activity CORN (crop damage rating) ([10]; 250 g ai/ha): 55; Post-emerge Herbicidal Activity ABUTH (phytotoxicity rating) ([11]; 63 g ai/ha): 70; Post-emerge Herbicidal Activity ABUTH (phytotoxicity rating) ([11]; 250 g ai/ha): 100; Post-emerge Herbicidal Activity CHEAL (phytotoxicity rating) ([12]; 63 g ai/ha): 95; Post-emerge Herbicidal Activity CHEAL (phytotoxicity rating) ([12]; 250 g ai/ha): 90; Post-emerge Herbicidal Activity DIGSA (phytotoxicity rating) ([13]; 63 g ai/ha): 0; Post-emerge Herbicidal Activity DIGSA (phytotoxicity rating) ([13]; 250 g ai/ha): 0; Post-emerge Herbicidal Activity ECHCG (phytotoxicity rating) ([14]; 63 g ai/ha): 0; Post-emerge Herbicidal Activity ECHCG (phytotoxicity rating) ([14]; 250 g ai/ha): 20; Post-emerge Herbicidal Activity CASOB (phytotoxicity rating) ([15]; 63 g ai/ha): 0; Post-emerge Herbicidal Activity CASOB (phytotoxicity rating) ([15]; 250 g ai/ha): 40; Post-emerge Herbicidal Activity IPOHE (phytotoxicity rating) ([16]; 63 g ai/ha): 50; Post-emerge Herbicidal Activity IPOHE (phytotoxicity rating) ([16]; 250 g ai/ha): 90; Post-emerge Herbicidal Activity SETVI (phytotoxicity rating) ([17]; 63 g ai/ha): 0; Post-emerge Herbicidal Activity SETVI (phytotoxicity rating) ([17]; 250 g ai/ha): 30; Post-emerge Herbicidal Activity AMARE (phytotoxicity rating) ([18]; 63 g ai/ha, rating scale 0-100 (0 no damage, 100 complete death)): 20; Post-emerge Herbicidal Activity AMARE (phytotoxicity rating) ([18]; 250 g ai/ha, rating scale 0-100): 60; phytotoxicity rating RICE ([19]; 63 g ai/ha): 15; phytotoxicity rating RICE ([19]; 250 g ai/ha): 90; phytotoxicity rating CORN ([20]; 63 g ai/ha): 0; phytotoxicity rating CORN ([20]; 250 g ai/ha): 90
